According to a melting point compilation (Tetko et al.; mined from patent text by program, amines drawn as free bases though some values may be those of a salt):

Point of comparison: CC(C)n1nc(-c2cnc(N)nc2-c2ccc(F)c(F)c2)ccc1=O, melting point 208 °C. Against it:
- CCOC(=O)c1cc(=O)c2cc(O)c(=O)ccc2[nH]1 — lower, 169 to 172 °C
- COc1ccc2cc(CO)ccc2c1Br — lower, 85 to 87 °C
- c1ccc2c(CCOc3cncc(N4CCNCC4)n3)c[nH]c2c1 — lower, 133 to 135 °C
- COc1cc(N)c(Cl)cc1C(=O)N[C@H]1CCN(CCNc2nc3ccccc3[nH]2)C[C@H]1OC (relative stereo) — lower, 206 °C
- O=C(N[C@H](Cc1ccc(C(F)(F)F)cc1)[C@@H](O)c1ccc(Oc2ccccc2)cc1)c1ccc(F)c2ccccc12 (racemic) — lower, 184 to 185 °C
- O=C(Cc1ccccc1)Nc1ccccc1OCc1ccccc1 — lower, 96 to 98 °C
- CN(C(=O)CN1C(=O)c2ccccc2C1=O)c1ccc(Cl)c(CO)c1Cl — higher, 236 to 241 °C
- O=S(=O)(CC=C1CCCC1)c1ccccc1 — lower, 68 °C
- COC(=O)c1ccc(-c2n[nH]c(C)n2)cc1Cl — lower, 196 to 198 °C
- CCOC(=O)c1cc(CC)sc1Nc1ccc(C(F)(F)F)cc1[N+](=O)[O-] — lower, 102 °C
- O=S(=O)(c1ccccc1)C(F)(F)C(O)c1ccccc1 (centres undefined) — lower, 77 to 79 °C
- CN(C(=O)[C@H]1C[C@H](C(=O)O)[C@@H](c2ccccc2F)N1C(=O)CNC(=O)Nc1cccc(CC(=O)O)c1)c1ccccc1 (racemic) — lower, 164 °C
- CCOC(=O)c1ccc(NCc2ccccc2)nc1C(=O)OCC — lower, 110 to 114 °C
- O=C(NCC1CC2C=CC1C2)NS(=O)(=O)C=Cc1ccccc1 (centres undefined) — lower, 161 to 164 °C
- O=C(COc1ccccc1C1NC(C(=O)O)CS1)NCCO[N+](=O)[O-] (centres undefined) — lower, 99 to 103 °C
- N#CC1CN1C(=O)NSC(F)(F)F (centres undefined) — lower, 83 to 85 °C
- CCOC(=O)[C@@H]1C[C@H](OS(=O)(=O)c2ccc(C)cc2)CN1C(=O)OCc1ccccc1 — lower, 91 to 92 °C
- CCCCCCCCCCCCCCOc1ccc(C(=O)N(Cc2ccccn2)C(C)=O)cc1 — lower, 68 to 70 °C
- CCN(Cc1ccccc1Oc1ccccc1)c1ccc(C(=O)O)cn1 — lower, 170 to 172 °C
- COc1ccc(C(=O)Nc2cc3c(cc2CCC2CCCCN2C)OCO3)cc1 (centres undefined) — lower, 112 to 113 °C
- CCc1nc(C)ccc1OC1SCC(OC(C)=O)C(OC(C)=O)C1OC(C)=O (centres undefined) — lower, 123 to 127 °C
- CCN(CC)Cc1ccc(CN2C(=O)COc3ccc(C=C4SC(=O)NC4=O)cc32)cc1 — higher, 244 to 246 °C
- CN1C(=O)C2(COc3cc4c(cc32)OCCO4)c2c(NC(=O)C3CC3)cccc21 (centres undefined) — higher, 266 to 268 °C
- O=C(c1ccc(F)cc1C(F)(F)F)N1Cc2cccnc2Nc2ccccc21 — lower, 183 to 185 °C
- OC(CCN1CCN(c2ccc(F)cc2)CC1)COc1ccccc1 (centres undefined) — lower, 97 to 99 °C
- COC(=O)c1cc(N)c(N)cc1OC — higher, > 300 °C
- CCCCc1oc2ccccc2c1-c1ccc(-c2ccc(OC(Cc3ccccc3)C(=O)O)cc2)cc1 (centres undefined) — lower, 169 to 170 °C
- Cc1c(N2CCC3(CC3N)C2)c(F)cc2c(=O)c(C(=O)O)cn([C@@H]3C[C@@H]3F)c12 (some centres undefined) — lower, 103 to 109 °C
- CS(=O)(=O)c1cc(C(=O)N=C(N)N)cc(-n2cccc2)c1 — higher, 235 to 236 °C
- CCCn1c(=O)c2[nH]c(CC(C)c3ccc(OCc4ccccc4)cc3)nc2n(CCC)c1=O (centres undefined) — lower, 124 to 126 °C
- CC(=O)N1CCCC1c1ccnc(-c2nc(=O)c3ccccc3s2)c1 (centres undefined) — lower, 206 to 207 °C
- CC(=O)C1CCC2C3CCC4=CC(=O)CCC4(CO)C3CCC12C (centres undefined) — lower, 165 to 168 °C
- Cc1oc(-c2ccccc2)nc1COc1ccc(C=CC=O)cc1C(F)(F)F — lower, 138 to 139 °C
- Cc1ccc(C=CC(=O)NC(C)c2ccc(NS(C)(=O)=O)c(F)c2)cc1C (centres undefined) — higher, 212 to 213 °C
- Clc1cc(Br)c2c(c1)OCCO2 — lower, 56.5 to 58 °C
- CS(=O)c1cccc(CNC(=O)c2nc3scc(COCc4ccc(C(=O)O)cc4)c3c(=O)[nH]2)c1 (centres undefined) — higher, 227 to 228 °C
- Cc1csc(C2=NOCCO2)c1Br — lower, 67 °C
- COc1ccc(C(=O)N2CCc3cc(S(=O)(=O)N4CC(c5ccccc5)NC4=O)ccc32)cc1OC (centres undefined) — lower, 178 to 179 °C
- CC(=Cc1cc(O)c(O)c([N+](=O)[O-])c1)C(C)O (centres undefined) — lower, 102 to 104 °C
- CC(C)(C)n1c(=O)n(-c2ccnc(N)c2)c2ccccc21 — lower, 177 to 178 °C
- CC(=O)N(C(=O)C1=NN(c2ccc(Cl)cc2)C(c2ccc(Cl)cc2)C1)c1ccc(C(F)(F)F)cc1 (centres undefined) — lower, 158 to 160 °C
- COC(=O)c1ccc(CN([C@@H](CO)Cc2ccccc2)S(=O)(=O)c2ccc(Cl)cc2)cc1 — lower, 128 to 130 °C
- COCOc1ccc(C=CC(=O)c2c(O)cc(OC)cc2OC)cc1 — lower, 104 °C
- CCCNC(=O)NS(=O)(=O)c1ccccc1I — higher, 211 to 212 °C
- CCOC(=O)c1c(N2CCN(C=O)CC2)c2cc(F)ccc2n(Cc2ccccc2)c1=O — lower, 206 °C
- COc1ccc(Oc2cc(Cl)ccc2[N+](=O)[O-])c(C(=O)O)c1 — higher, 232 to 234 °C
- CCOC(=O)N1C(C)=CC(C(=O)OCC)(c2cccc(OCC3CO3)c2)C=C1C (centres undefined) — lower, 116 °C
- Cc1c2cnccc2c(C)c2c1c1cc(O)ccc1n2C — higher, 337 to 338 °C
- CC(C)c1ccccc1Sc1c(O)cc(-c2ccc(OCCCc3ccccc3)cc2)oc1=O — lower, 132 to 133 °C
- N#CC1(Nc2ccccc2)CCN(C2c3ccccc3-c3ccccc32)CC1 — lower, 165 °C
- CC(C)(C)c1cc(C(=NO)c2ccccc2)cc(C(C)(C)C)c1O — lower, 151 °C
- Cc1ccc(C=CCN2CCc3nc(N)sc3CC2)cc1 — lower, 126 to 130 °C
- Cc1ccc(S(=O)(=O)N2C=Cc3cccc(-n4cccc4)c3C2C#N)cc1 (centres undefined) — lower, 160 °C
- COC(=O)c1ccc(OCc2ccccc2)cn1 — lower, 90 to 90.5 °C
- COC(=O)c1ccc(-c2ccc(-c3ccccc3)c(-c3ccc4c(c3)C(C)(C)CCC4(C)C)c2)c(OC)c1 — lower, 144 to 146 °C
- CN(C)Cc1c(-c2ccccc2)[nH]c2nccnc12 — lower, 191 to 192 °C
- CC1(C)COC(c2ccc3c(c2)C(=O)c2ccccc2CO3)=N1 — lower, 122 °C
- CC(C)(C)OC(=O)N1CCc2c(Br)cccc2C1 — lower, 75.6 to 80.4 °C
- CC(C)n1c(C=O)c(-c2ccc(F)cc2)c(-c2ccccc2)c1C(=O)Nc1cccc(S(N)(=O)=O)c1 — higher, 224 to 225 °C
- NC1=C(c2ccc(O)cc2)C(=O)c2ccc(O)cc21 — higher, 213 °C
- CCCCCCCCc1ncc([N+](=O)[O-])n1C — lower, 141 °C
- COCCNC(=O)c1cccc(-c2cccc3cc(C(C)(O)c4cccc(C(F)(F)F)c4)sc23)c1 (centres undefined) — lower, 134 to 138 °C
- COc1ccc(N2CCOCC2)c2sc(C(=O)NCC(=O)Cc3cccs3)nc12 — lower, 165 °C
- Cc1nc(-c2c(Cl)cc(O)cc2Cl)oc1C — higher, 228 to 229 °C
- CC1(C)CCONC1=O — lower, 115 to 119 °C
- COc1nc(C)c(N2CCCn3c2nc2c(OC)ccc(C(OC(F)F)C(F)(F)F)c23)c(C)n1 (centres undefined) — lower, 201 to 203 °C
- O=C(O)CCCN1C(=O)c2cccc([N+](=O)[O-])c2C1=O — lower, 144 to 146 °C
- CCOC(=O)C(=CNc1ccccc1)C(=O)c1cc(F)c(Cl)c([N+](=O)[O-])c1Cl — lower, 133 to 135 °C
